PMC11879040, “Advancing systemic toxicity risk assessment: Evaluation of a NAM-based toolbox approach” (Toxicological Sciences, 2024)
Like-named read-outs stand apart in the source and are kept apart here.

What was measured:
[1] = tested on: Potassium Voltage-Gated Channel Kv non-selective, KCNQ1 (r); experiment: IPP KCNQ1 binding (antagonist radioligand); parameters: species or system rat
[2] = tested on: Gamma-aminobutyric acid receptor subunit alpha-1 BZD site, GABRA1A (r); format: binding, rat
[3] = tested on: Sodium channel protein type 5 subunit alpha (site 2), SCN5A (r); format: binding, rat
[4] = target: T1, Adenosine receptor A2a, ADORA2A (h) (Homo sapiens, UniProt P29274); experiment: IPP ADORA2A binding (agonist radioligand); details: control NECA
T1 construct: purchased Eurofins Cerep (SafetyScreen44-based IPP panel)
T1 sequence (P29274 whole entry): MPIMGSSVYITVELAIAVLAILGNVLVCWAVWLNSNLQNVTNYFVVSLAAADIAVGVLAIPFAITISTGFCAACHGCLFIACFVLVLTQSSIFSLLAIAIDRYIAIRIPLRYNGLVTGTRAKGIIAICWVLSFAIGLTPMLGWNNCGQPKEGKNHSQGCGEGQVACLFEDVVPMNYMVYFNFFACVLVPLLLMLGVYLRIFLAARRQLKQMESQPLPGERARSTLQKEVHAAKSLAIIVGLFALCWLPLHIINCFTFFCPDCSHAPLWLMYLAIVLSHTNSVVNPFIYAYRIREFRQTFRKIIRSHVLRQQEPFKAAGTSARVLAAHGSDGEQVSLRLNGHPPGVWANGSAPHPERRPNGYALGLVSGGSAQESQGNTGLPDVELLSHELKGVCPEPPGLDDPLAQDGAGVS

[5] = target: T2, Constitutive androstane receptor CAR, NR1I3 (h) (Homo sapiens, UniProt Q14994); format: biochemical
T2 sequence (Q14994 1-352): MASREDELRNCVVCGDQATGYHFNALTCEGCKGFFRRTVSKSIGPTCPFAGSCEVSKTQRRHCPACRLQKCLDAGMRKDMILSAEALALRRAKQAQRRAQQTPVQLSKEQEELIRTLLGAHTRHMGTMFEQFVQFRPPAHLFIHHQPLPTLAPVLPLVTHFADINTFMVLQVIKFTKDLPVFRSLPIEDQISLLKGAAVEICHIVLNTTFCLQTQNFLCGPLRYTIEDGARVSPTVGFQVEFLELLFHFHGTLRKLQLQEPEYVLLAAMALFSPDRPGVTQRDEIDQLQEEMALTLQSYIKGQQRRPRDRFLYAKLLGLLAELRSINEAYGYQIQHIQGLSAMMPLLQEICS

[6] = target: T3, Estrogen receptor, ER1 (h) (Homo sapiens, UniProt P03372); experiment: IPP ER1 coactivator recruitment (agonist); format: biochemical; details: 100 uM, estriol, * denotes assay interference (2-Amino-6-chloro-4-nitrophenol, HC Red 3)
T3 construct: purchased Eurofins Cerep (SafetyScreen44-based IPP panel)
T3 sequence (P03372 1-595): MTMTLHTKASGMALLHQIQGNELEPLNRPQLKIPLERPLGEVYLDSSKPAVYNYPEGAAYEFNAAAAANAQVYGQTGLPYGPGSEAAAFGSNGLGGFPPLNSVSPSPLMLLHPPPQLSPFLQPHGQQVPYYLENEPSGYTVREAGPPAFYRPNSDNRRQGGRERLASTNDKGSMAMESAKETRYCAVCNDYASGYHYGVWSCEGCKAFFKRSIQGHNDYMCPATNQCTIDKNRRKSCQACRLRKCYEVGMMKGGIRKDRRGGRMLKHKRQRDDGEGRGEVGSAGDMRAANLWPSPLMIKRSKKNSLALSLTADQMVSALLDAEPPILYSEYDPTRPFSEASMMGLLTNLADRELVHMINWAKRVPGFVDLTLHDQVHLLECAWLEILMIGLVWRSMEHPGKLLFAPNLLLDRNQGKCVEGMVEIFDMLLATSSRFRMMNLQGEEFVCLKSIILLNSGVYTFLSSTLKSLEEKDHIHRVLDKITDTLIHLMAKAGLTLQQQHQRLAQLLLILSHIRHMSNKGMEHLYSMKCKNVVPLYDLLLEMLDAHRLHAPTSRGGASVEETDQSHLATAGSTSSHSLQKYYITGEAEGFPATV

[7] = target: T3, Estrogen receptor, ER1 (h); experiment: IPP ER1 coactivator recruitment (antagonist); format: biochemical; details: 100 uM, estriol, * denotes assay interference (2-Amino-6-chloro-4-nitrophenol, HC Red 3)
[8] = tested on: Thyroid hormone receptor alpha, THRA (h); experiment: IPP THRA coactivator recruitment (agonist); format: biochemical, human; details: agonist, T3
[9] = tested on: Tubulin (r); experiment: IPP Tubulin binding; parameters: species or system rat
[10] = tested on: HepG2 cells; experiment: Cell stress panel (CSP), 24 h, 8 concentrations, BIFROST global PoD; format: cell-based; details: HepG2; cell stress panel PoD
Experimental: Compounds were tested using the previously developed cell stress panel ([Hatherell et al. 2020]) and the expanded biomarker panel outlined in Middleton et al. HepG2 cells were treated with all compounds for 24 h across 8 concentrations prior to biomarker analysis. The same plate layout and number of replicates (3 biological and 2 technical) were used as previously for each assay within the panel.

[11] = tested on: HepG2 cells; experiment: High-throughput transcriptomics (HTTr, TempO-Seq), HepG2, 24 h; format: cell-based, human; details: HepG2; for pod_httr_bifrost PoD: HTTr BIFROST PoD; for podl_path_minbmd PoD: HTTr minimum pathway BMD(L)
Experimental: (§1) HepG2, HepaRG, and MCF7 cells were treated with each compound for 24 h across a dose range of 7 concentrations and lysed using TempO-Seq lysis buffer (BioSpyder Technologies, proprietary kit, see [Middleton et al. 2022] for method details). Sequencing was performed using TempO-Seq (BioClavis) version 2 of the human whole transcriptome panel and analyzed as described previously in Middleton et al.

[12] = tested on: HepaRG cells; experiment: High-throughput transcriptomics (HTTr, TempO-Seq), HepaRG, 24 h; format: cell-based, human; details: HepaRG; for pod_httr_bifrost PoD: HTTr BIFROST PoD; for podl_path_minbmd PoD: HTTr minimum pathway BMD(L)
Experimental: as §1

[13] = tested on: MCF7 cells; experiment: High-throughput transcriptomics (HTTr, TempO-Seq), MCF7, 24 h; format: cell-based, human; details: MCF-7; for pod_httr_bifrost PoD: HTTr BIFROST PoD; for podl_path_minbmd PoD: HTTr minimum pathway BMD(L)
Experimental: as §1

[14] = tested on: 63 targets with known safety liabilities; experiment: In vitro pharmacological profiling (IPP) panel, screening at 10 or 100 µM and dose response, minimum IC50/AC50; format: biochemical; details: lowest AC50 across IPP panel (systemic targets); cell_type -; read-out: ipp_lowest_ac50_systemic PoD
[15] = tested on: Glutamate receptor ionotropic NMDA 1 non-selective, GRIN1 (r)
[16] = target: Potassium voltage-gated channel subfamily H member 2 hERG, KCNH2 (h) (Homo sapiens, UniProt Q12809); details: human, 100 µM
Sequence of Potassium voltage-gated channel subfamily H member 2 hERG, KCNH2 (h) (Q12809 whole entry): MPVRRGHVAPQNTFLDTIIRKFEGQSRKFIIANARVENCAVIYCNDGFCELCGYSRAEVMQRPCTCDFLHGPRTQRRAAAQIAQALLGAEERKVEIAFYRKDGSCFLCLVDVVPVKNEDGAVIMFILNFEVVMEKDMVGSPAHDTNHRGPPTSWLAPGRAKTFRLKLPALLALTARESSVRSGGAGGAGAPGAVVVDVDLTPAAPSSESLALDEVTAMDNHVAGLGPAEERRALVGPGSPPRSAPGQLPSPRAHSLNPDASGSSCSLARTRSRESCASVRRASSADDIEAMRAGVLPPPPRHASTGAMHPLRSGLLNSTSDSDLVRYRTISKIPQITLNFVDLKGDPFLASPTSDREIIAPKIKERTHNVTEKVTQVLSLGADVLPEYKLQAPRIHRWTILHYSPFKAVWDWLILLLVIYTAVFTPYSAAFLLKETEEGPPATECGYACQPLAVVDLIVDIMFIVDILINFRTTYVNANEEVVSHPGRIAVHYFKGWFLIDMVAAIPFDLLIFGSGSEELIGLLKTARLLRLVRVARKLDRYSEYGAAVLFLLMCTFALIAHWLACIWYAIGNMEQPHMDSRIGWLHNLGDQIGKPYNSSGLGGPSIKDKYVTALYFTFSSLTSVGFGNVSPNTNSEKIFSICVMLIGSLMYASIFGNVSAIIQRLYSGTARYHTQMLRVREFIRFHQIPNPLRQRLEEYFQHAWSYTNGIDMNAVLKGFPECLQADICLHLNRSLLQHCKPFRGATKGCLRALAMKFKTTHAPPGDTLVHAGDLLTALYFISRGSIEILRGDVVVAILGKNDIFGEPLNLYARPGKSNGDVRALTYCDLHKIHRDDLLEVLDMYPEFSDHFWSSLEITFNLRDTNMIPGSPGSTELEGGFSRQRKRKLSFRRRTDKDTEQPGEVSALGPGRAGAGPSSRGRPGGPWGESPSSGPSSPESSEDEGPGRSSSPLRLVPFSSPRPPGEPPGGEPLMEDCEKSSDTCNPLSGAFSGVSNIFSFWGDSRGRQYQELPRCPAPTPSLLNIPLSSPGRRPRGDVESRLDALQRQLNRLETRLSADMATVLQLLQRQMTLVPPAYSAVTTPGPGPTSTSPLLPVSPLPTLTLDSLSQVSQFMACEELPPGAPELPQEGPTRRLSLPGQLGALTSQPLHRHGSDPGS

[17] = target: T4, Pregnane X receptor PXR, NR1I2 (h) (Homo sapiens, UniProt O75469)
T4 sequence (O75469 1-434): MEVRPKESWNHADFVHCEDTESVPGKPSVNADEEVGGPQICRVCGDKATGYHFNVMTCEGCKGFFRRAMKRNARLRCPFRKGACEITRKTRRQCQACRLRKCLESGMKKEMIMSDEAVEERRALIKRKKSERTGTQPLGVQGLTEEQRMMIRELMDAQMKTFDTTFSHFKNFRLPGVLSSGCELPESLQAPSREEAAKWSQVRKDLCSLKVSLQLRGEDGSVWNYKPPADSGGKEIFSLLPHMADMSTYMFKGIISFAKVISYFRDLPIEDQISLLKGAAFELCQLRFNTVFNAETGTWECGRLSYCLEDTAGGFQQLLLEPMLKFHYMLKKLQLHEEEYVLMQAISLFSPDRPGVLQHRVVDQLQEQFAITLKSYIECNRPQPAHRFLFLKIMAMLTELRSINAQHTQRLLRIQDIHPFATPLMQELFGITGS

[18] = human
[19] = tested on: rat; details: ref [2], cited from earlier work
[20] = PBK level L2; per chemical see Peff Reference; ref [3],[4],[11]; cited from earlier work
[21] = target: T5, Progesterone receptor, PGR (h) (Homo sapiens, UniProt P06401); experiment: biochemical; format: biochemical
T5 sequence (P06401 1-933): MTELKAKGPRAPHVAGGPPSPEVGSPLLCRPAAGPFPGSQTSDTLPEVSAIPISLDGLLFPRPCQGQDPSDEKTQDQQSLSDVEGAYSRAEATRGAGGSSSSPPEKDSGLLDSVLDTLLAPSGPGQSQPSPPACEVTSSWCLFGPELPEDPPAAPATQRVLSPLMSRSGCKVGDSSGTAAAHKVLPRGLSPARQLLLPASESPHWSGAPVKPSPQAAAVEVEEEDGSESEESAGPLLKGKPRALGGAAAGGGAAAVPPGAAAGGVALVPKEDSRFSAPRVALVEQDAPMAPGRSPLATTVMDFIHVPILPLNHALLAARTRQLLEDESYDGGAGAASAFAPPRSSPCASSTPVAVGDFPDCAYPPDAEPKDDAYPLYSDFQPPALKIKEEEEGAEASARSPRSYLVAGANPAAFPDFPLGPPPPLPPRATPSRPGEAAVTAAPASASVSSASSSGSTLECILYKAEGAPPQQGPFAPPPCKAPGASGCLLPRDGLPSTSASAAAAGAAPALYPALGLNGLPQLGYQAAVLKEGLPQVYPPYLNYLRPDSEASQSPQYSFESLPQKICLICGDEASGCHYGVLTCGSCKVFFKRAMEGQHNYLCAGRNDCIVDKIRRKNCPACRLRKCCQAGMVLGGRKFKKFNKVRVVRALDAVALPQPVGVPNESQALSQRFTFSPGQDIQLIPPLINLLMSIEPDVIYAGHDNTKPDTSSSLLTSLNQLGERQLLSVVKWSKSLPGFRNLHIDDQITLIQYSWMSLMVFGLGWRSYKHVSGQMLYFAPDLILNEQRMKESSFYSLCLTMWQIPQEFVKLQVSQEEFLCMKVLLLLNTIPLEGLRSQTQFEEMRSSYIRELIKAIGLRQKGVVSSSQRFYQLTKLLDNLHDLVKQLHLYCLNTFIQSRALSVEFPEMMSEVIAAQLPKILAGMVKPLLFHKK

[22] = tested on: mouse; details: mouse, cited from earlier work
[23] = target: Voltage-dependent L-type Ca2+ channel (dihydropyridine site), CACNA1C (r) (Rattus norvegicus, UniProt P22002); format: binding
Sequence of Voltage-dependent L-type Ca2+ channel (dihydropyridine site), CACNA1C (r) (P22002 whole entry): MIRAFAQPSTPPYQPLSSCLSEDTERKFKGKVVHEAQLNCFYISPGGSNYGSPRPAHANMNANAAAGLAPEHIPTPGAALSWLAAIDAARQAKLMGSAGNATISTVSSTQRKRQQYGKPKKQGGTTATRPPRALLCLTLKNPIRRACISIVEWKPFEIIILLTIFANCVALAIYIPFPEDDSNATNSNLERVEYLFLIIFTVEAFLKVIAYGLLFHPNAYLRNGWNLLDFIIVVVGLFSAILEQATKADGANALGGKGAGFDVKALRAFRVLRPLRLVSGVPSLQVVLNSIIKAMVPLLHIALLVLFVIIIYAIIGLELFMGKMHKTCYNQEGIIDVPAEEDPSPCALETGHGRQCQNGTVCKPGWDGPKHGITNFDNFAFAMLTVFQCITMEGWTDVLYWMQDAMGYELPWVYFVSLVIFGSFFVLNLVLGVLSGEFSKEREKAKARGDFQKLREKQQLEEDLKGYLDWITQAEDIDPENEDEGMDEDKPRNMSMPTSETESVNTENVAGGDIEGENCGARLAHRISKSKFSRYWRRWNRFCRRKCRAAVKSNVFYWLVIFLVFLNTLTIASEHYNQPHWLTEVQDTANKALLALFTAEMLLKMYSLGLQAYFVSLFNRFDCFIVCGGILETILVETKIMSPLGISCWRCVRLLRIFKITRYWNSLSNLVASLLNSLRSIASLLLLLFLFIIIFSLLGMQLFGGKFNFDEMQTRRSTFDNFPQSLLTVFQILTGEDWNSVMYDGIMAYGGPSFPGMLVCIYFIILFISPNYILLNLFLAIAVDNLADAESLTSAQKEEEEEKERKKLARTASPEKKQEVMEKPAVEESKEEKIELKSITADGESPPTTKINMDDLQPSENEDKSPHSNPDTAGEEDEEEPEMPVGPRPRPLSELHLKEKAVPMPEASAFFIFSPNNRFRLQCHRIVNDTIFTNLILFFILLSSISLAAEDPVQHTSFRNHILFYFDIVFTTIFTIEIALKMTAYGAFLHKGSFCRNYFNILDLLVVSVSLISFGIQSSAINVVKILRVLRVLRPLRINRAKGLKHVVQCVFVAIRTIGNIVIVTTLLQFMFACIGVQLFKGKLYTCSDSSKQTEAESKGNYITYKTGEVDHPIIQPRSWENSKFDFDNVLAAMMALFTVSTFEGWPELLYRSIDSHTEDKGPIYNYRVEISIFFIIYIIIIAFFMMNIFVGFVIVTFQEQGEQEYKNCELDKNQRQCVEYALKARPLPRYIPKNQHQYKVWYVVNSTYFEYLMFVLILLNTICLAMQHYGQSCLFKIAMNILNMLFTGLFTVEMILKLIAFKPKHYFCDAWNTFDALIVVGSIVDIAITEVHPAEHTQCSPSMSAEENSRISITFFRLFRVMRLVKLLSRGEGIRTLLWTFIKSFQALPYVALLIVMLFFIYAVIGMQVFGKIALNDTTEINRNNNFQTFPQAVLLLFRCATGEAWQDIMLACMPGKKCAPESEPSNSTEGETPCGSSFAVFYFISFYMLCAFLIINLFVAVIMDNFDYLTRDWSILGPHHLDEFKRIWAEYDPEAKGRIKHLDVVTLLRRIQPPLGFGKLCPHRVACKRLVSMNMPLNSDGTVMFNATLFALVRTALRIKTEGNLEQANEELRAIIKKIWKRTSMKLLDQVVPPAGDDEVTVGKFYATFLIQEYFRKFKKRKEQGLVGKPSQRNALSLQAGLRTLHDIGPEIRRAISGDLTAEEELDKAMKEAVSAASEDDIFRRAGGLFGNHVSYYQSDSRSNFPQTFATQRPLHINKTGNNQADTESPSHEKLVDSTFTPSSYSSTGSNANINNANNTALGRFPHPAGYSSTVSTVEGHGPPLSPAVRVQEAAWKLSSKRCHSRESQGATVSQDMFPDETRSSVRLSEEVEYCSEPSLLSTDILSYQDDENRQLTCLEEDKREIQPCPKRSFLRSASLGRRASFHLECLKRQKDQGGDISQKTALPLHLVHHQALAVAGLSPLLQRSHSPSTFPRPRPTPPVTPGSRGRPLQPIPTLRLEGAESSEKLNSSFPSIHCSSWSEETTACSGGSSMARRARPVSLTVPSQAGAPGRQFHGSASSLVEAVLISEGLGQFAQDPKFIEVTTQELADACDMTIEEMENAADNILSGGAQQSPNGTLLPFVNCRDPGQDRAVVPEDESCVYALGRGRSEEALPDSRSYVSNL

[24] = 12 healthy female, cited from earlier work
[25] = 100 uM, * denotes assay interference (2-Amino-6-chloro-4-nitrophenol, HC Red 3)
[26] = 100 uM, ligand/control Colchicine
[27] = IPP screening at 100 uM, control CGS 19755
[28] = Oral 50 mg (IR: Capsule), fasted, calibration, ref Huttner et al. 2018
[29] = human, Oral 100 mg, Fasted, validation, ref Huttner et al., Journal of Antimicrobial Chemotherapy (2018) 74(6): 1656-1661

Row | Compound | Specific binding ([4]; IPP screening at 100 uM) [%] | IPP screening %, Coactivator recruitment [8, 25] | IPP screening %, Specific binding [9, 26] [%] | pod_cell_stress PoD [10] [µM] | pod_httr_bifrost PoD [11] [µM] | podl_path_minbmd PoD [11] [µM] | pod_httr_bifrost PoD [12] [µM] | podl_path_minbmd PoD [12] [µM] | pod_httr_bifrost PoD [13] [µM] | podl_path_minbmd PoD [13] [µM] | Specific binding [15, 27] [%] | risk [18] | Specific binding [2] [%] | Specific binding [3] [%] | other results
1 | Nc1cc([N+](=O)[O-])cc(Cl)c1O [2-Amino-6-chloro-4-nitrophenol] | 3.6 | 41.0* % | 5.0 | 0.2197 | 0.8029 | 158.096 | 1.518 | 35.7772 | 0.4471 | 9.316 | 21.2 | 0 |  |  | Specific binding ([1]; IPP screening at 100 uM, control α-dendrotoxin): 13.7%; Specific binding ([2]; IPP screening at 100 uM, control diazepam): 14.3%; Specific binding ([3]; IPP screening at 100 uM, control veratridine): 31.5%; IPP Dose Response PoD: CAR antagonist effect [5]: [40.9,86.1]; IPP screening %, Coactivator recruitment [6]: 6.0* %; IPP screening %, Coactivator recruitment [7]: -9.0* %; AC50 [14]: 1.53 µM; IPP screening %, Specific binding [16]: 10.7%; IPP Dose Response PoD: PXR antagonist [17]: [37.1,80.3]; NOAEL ([19]; 90-day rat study, increased liver weights): 10 mg/kg bw/day; dose up to which no maternal or fetal effects were observed ([19]; reproductive and developmental toxicity rat study): 90 mg/kg bw/day; Peff [20]: 7.96 cm/s x E-04
2 | O=P1(N(CCCl)CCCl)NCCCO1 (stereo not shown) [Cyclophosphamide, 2-[Bis(2-chloroethyl)amino]-1,3,2lambda~5~-oxazaphosphinan-2-one] | 15.0 | -1.0% | -4.0 | 3.329 | 118.124 | 783.625 | 7.071 | 31.838 | 0.08892 | 210.107 | 6.8 | 1 | 19.4 | 12.4 | Specific binding [1]: 17.5%; EC50 [21]: > 300 µM; PoD (NOAEL) ([22]; 42 days, developmental neurotox study, ref ToxRefDB/Paul-Friedman et al. (2020)/regulatory opinions): 45 mg/kg bw/day
3 | O=C1CN(N=Cc2ccc([N+](=O)[O-])o2)C(=O)N1 [Nitrofurantoin, 1-{[(5-Nitrofuran-2-yl)methylidene]amino}imidazolidine-2,4-dione] |  |  |  | 0.5175 | 0.5233 | 2.98 | 0.1863 | 2.332 | 0.3553 | 7.519 |  | 1 | 7.2 | 4.4 | Specific binding [23]: -6.9%; Specific binding ([1]; IPP screening at 10 uM, control α-dendrotoxin): -14.6%; Specific binding ([4]; IPP screening at 10 uM): 37.8%; IPP screening %, Coactivator recruitment ([8]; 10 uM): 0.0%; IPP screening %, Specific binding [9]: 7.0%; Specific binding [15]: -2.8%; PoD (NOAEL) ([22]; in vivo): 60 mg/kg bw/day; Reported AUC0-t [24, 28]: 3040 to 6400 ng·h/mL; Reported cmax [24, 28]: 0.21 to 0.45 mg/L; Reported tmax [24, 28]: 30 to 300 min; Reported AUC0-t [24, 29]: 940 to 10970 ng·h/mL; Reported cmax [24, 29]: 0.22 to 1.26 mg/L; Reported tmax [24, 29]: 30 to 300 min
